Test results as given in US20200370087A1, “METHOD FOR DETERMINING MICROBIAL SUSCEPTIBILITY TO ANTIBIOTIC AGENTS” (Ascilion AB, priority 2017, published 2020).
≈ marks a conversion by molar mass, not a printed value.

Experiments:
[1] = test system: Staphylococcus aureus (ATCC 29213); test: Glucose consumption susceptibility test, blood culture diluted in MHB with glucose (Example 1); assay type: cell-based; settings: S. aureus; for glucose concentration, t = 60: 60 minutes; for glucose concentration, t = 120: 120 minutes; for glucose concentration, t = 180: 180 minutes; for glucose concentration, t = 240: 240 minutes
Protocol: (§1) Strains of Escherichia coli (ATCC 25922), Enterococcus faecalis (ATCC 29212) and Staphylococcus aureus (ATCC 29213) were inoculated in blood culture bottles (SVA, Uppsala, Sweden) and cultivated according to the manufacturer's instructions until positive.
(§2) Medium from each blood culture bottle was diluted 1:100 with cation adjusted Mueller-Hinton broth (SVA, Uppsala, Sweden) supplemented with glucose to a concentration of 1.0 mg/mL.
(§3) Glucose concentrations were measured at 0, 60, 120, 180, and 240 minutes using a WaveSense Jazz glucometer (AgaMatrix, Inc., Salem, N.H., USA) with accompanying test strips.
(§4) Susceptibility scores corresponding to MIC values were calculated as described above. A 80% threshold was applied, i.e. the lowest concentration of antibiotic that entailed a rate of change in glucose concentration that was equal to or less than 80% of the reference was selected as the Minimal Inhibitory Concentration. The rate of change was calculated between the measurements at 60 and 180 minutes.

[2] = test system: Staphylococcus aureus ATCC 29213; settings: S.aureus, cited from earlier work
[3] = test system: Escherichia coli (ATCC 25922); test: Glucose consumption susceptibility test, blood culture diluted in MHB with glucose (Example 1); assay type: cell-based; set-up: glucose concentration, t = 0 / glucose concentration, t = 60 / glucose concentration, t = 120 / glucose concentration, t = 180 / dC/dT (rate of change in glucose concentration) / glucose concentration, t = 240: unit not given here; settings: E. coli; for glucose concentration, t = 60: 60 minutes; for glucose concentration, t = 120: 120 minutes; for glucose concentration, t = 180: 180 minutes
Protocol: as §1, §2, §3, §4

SMILES: CN[C@H](CC(C)C)C(=O)N[C@H]1C(=O)N[C@@H](CC(N)=O)C(=O)N[C@H]2C(=O)N[C@H]3C(=O)N[C@H](C(=O)N[C@H](C(=O)O)c4cc(O)cc(O)c4-c4cc3ccc4O)[C@H](O)c3ccc(c(Cl)c3)Oc3cc2cc(c3O[C@@H]2O[C@H](CO)[C@@H](O)[C@H](O)[C@H]2O[C@H]2C[C@](C)(N)[C@H](O)[C@H](C)O2)Oc2ccc(cc2Cl)[C@H]1O [Vancomycin, vancomycin]
- F = the rate of change in glucose concentration in relation to the reference ([1]; antibiotic 0.25 μg/mL): 75%
- dC/dT (rate of change in glucose concentration) ([1]; antibiotic 0.25 μg/mL): 25
- glucose concentration, t = 60 ([1]; antibiotic 0.25 μg/mL): 142
- glucose concentration, t = 120 ([1]; antibiotic 0.25 μg/mL): 133
- glucose concentration, t = 180 ([1]; antibiotic 0.25 μg/mL): 92
- glucose concentration, t = 240 ([1]; antibiotic 0.25 μg/mL): 42
- F = the rate of change in glucose concentration in relation to the reference ([1]; antibiotic 0.5 μg/mL): 84%
- dC/dT (rate of change in glucose concentration) ([1]; antibiotic 0.5 μg/mL): 28
- glucose concentration, t = 60 ([1]; antibiotic 0.5 μg/mL): 156
- glucose concentration, t = 120 ([1]; antibiotic 0.5 μg/mL): 142
- glucose concentration, t = 180 ([1]; antibiotic 0.5 μg/mL): 100
- glucose concentration, t = 240 ([1]; antibiotic 0.5 μg/mL): 51
- F = the rate of change in glucose concentration in relation to the reference ([1]; antibiotic 1 μg/mL): 96%
- dC/dT (rate of change in glucose concentration) ([1]; antibiotic 1 μg/mL): 32
- glucose concentration, t = 60 ([1]; antibiotic 1 μg/mL): 161
- glucose concentration, t = 120 ([1]; antibiotic 1 μg/mL): 140
- glucose concentration, t = 180 ([1]; antibiotic 1 μg/mL): 97
- glucose concentration, t = 240 ([1]; antibiotic 1 μg/mL): 51
- F = the rate of change in glucose concentration in relation to the reference ([1]; antibiotic 2 μg/mL): 88%
- dC/dT (rate of change in glucose concentration) ([1]; antibiotic 2 μg/mL): 30
- glucose concentration, t = 60 ([1]; antibiotic 2 μg/mL): 160
- glucose concentration, t = 120 ([1]; antibiotic 2 μg/mL): 143
- glucose concentration, t = 180 ([1]; antibiotic 2 μg/mL): 101
- glucose concentration, t = 240 ([1]; antibiotic 2 μg/mL): 53
- F = the rate of change in glucose concentration in relation to the reference ([1]; antibiotic 4 μg/mL): 39%
- dC/dT (rate of change in glucose concentration) ([1]; antibiotic 4 μg/mL): 13
- glucose concentration, t = 60 ([1]; antibiotic 4 μg/mL): 157
- glucose concentration, t = 120 ([1]; antibiotic 4 μg/mL): 147
- glucose concentration, t = 180 ([1]; antibiotic 4 μg/mL): 131
- glucose concentration, t = 240 ([1]; antibiotic 4 μg/mL): 107
- F = the rate of change in glucose concentration in relation to the reference ([1]; antibiotic 8 μg/mL): 6%
- dC/dT (rate of change in glucose concentration) ([1]; antibiotic 8 μg/mL): 2
- glucose concentration, t = 60 ([1]; antibiotic 8 μg/mL): 150
- glucose concentration, t = 120 ([1]; antibiotic 8 μg/mL): 150
- glucose concentration, t = 180 ([1]; antibiotic 8 μg/mL): 146
- glucose concentration, t = 240 ([1]; antibiotic 8 μg/mL): 149
- F = the rate of change in glucose concentration in relation to the reference ([1]; antibiotic 16 μg/mL): 7%
- dC/dT (rate of change in glucose concentration) ([1]; antibiotic 16 μg/mL): 3
- glucose concentration, t = 60 ([1]; antibiotic 16 μg/mL): 157
- glucose concentration, t = 120 ([1]; antibiotic 16 μg/mL): 153
- glucose concentration, t = 180 ([1]; antibiotic 16 μg/mL): 152
- glucose concentration, t = 240 ([1]; antibiotic 16 μg/mL): 149
- F = the rate of change in glucose concentration in relation to the reference ([1]; antibiotic 32 μg/mL): 13%
- dC/dT (rate of change in glucose concentration) ([1]; antibiotic 32 μg/mL): 5
- glucose concentration, t = 60 ([1]; antibiotic 32 μg/mL): 157
- glucose concentration, t = 120 ([1]; antibiotic 32 μg/mL): 140
- glucose concentration, t = 180 ([1]; antibiotic 32 μg/mL): 148
- glucose concentration, t = 240 ([1]; antibiotic 32 μg/mL): 146
- MIC, EUCAST, range in parentheses ([2]; range obtained by EUCAST from ISO 20776-1: 2006): (0.5-2) ug/mL
- MIC, EUCAST ([2]; reference value, Mueller-Hinton agar, incubation 18±2 h): 1 µg/mL (≈ 0.69 µM)
- F = the rate of change in glucose concentration in relation to the reference ([3]; antibiotic 0.0625 μg/mL): 67%
- dC/dT (rate of change in glucose concentration) ([3]; antibiotic 0.0625 μg/mL): 42
- glucose concentration, t = 60 ([3]; antibiotic 0.0625 μg/mL): 148
- glucose concentration, t = 120 ([3]; antibiotic 0.0625 μg/mL): 144
- glucose concentration, t = 180 ([3]; antibiotic 0.0625 μg/mL): 65
- F = the rate of change in glucose concentration in relation to the reference ([3]; antibiotic 0.125 μg/mL): 71%
- dC/dT (rate of change in glucose concentration) ([3]; antibiotic 0.125 μg/mL): 44
- glucose concentration, t = 60 ([3]; antibiotic 0.125 μg/mL): 153
- glucose concentration, t = 120 ([3]; antibiotic 0.125 μg/mL): 154
- glucose concentration, t = 180 ([3]; antibiotic 0.125 μg/mL): 65
- F = the rate of change in glucose concentration in relation to the reference ([3]; antibiotic 0.25 μg/mL): 68%
- dC/dT (rate of change in glucose concentration) ([3]; antibiotic 0.25 μg/mL): 42
- glucose concentration, t = 60 ([3]; antibiotic 0.25 μg/mL): 150
- glucose concentration, t = 120 ([3]; antibiotic 0.25 μg/mL): 145
- glucose concentration, t = 180 ([3]; antibiotic 0.25 μg/mL): 66
- F = the rate of change in glucose concentration in relation to the reference ([3]; antibiotic 0.5 μg/mL): 65%
- dC/dT (rate of change in glucose concentration) ([3]; antibiotic 0.5 μg/mL): 41
- glucose concentration, t = 60 ([3]; antibiotic 0.5 μg/mL): 149
- glucose concentration, t = 120 ([3]; antibiotic 0.5 μg/mL): 145
- glucose concentration, t = 180 ([3]; antibiotic 0.5 μg/mL): 68
- F = the rate of change in glucose concentration in relation to the reference ([3]; antibiotic 1 μg/mL): 73%
- dC/dT (rate of change in glucose concentration) ([3]; antibiotic 1 μg/mL): 45
- glucose concentration, t = 60 ([3]; antibiotic 1 μg/mL): 155
- glucose concentration, t = 120 ([3]; antibiotic 1 μg/mL): 149
- glucose concentration, t = 180 ([3]; antibiotic 1 μg/mL): 65
- F = the rate of change in glucose concentration in relation to the reference ([3]; antibiotic 2 μg/mL): 65%
- dC/dT (rate of change in glucose concentration) ([3]; antibiotic 2 μg/mL): 40
- glucose concentration, t = 60 ([3]; antibiotic 2 μg/mL): 147
- glucose concentration, t = 120 ([3]; antibiotic 2 μg/mL): 151
- glucose concentration, t = 180 ([3]; antibiotic 2 μg/mL): 67
- F = the rate of change in glucose concentration in relation to the reference ([3]; antibiotic 4 μg/mL): 69%
- dC/dT (rate of change in glucose concentration) ([3]; antibiotic 4 μg/mL): 43
- glucose concentration, t = 60 ([3]; antibiotic 4 μg/mL): 147
- glucose concentration, t = 120 ([3]; antibiotic 4 μg/mL): 145
- glucose concentration, t = 180 ([3]; antibiotic 4 μg/mL): 61
- F = the rate of change in glucose concentration in relation to the reference ([3]; antibiotic 8 μg/mL): 87%
- dC/dT (rate of change in glucose concentration) ([3]; antibiotic 8 μg/mL): 54
- glucose concentration, t = 60 ([3]; antibiotic 8 μg/mL): 159
- glucose concentration, t = 120 ([3]; antibiotic 8 μg/mL): 147
- glucose concentration, t = 180 ([3]; antibiotic 8 μg/mL): 51
